Assay results taken from patent US9695154B2, “Heteroaryl inhibitors of sumo activating enzyme” (MILLENNIUM PHARMACEUTICALS, INC., priority 2013, dated 2017).

Molecular target: T1, recombinant human SAE enzyme (Homo sapiens, UniProt Q9UBT2)
T1 sequence (Q9UBT2 1-640): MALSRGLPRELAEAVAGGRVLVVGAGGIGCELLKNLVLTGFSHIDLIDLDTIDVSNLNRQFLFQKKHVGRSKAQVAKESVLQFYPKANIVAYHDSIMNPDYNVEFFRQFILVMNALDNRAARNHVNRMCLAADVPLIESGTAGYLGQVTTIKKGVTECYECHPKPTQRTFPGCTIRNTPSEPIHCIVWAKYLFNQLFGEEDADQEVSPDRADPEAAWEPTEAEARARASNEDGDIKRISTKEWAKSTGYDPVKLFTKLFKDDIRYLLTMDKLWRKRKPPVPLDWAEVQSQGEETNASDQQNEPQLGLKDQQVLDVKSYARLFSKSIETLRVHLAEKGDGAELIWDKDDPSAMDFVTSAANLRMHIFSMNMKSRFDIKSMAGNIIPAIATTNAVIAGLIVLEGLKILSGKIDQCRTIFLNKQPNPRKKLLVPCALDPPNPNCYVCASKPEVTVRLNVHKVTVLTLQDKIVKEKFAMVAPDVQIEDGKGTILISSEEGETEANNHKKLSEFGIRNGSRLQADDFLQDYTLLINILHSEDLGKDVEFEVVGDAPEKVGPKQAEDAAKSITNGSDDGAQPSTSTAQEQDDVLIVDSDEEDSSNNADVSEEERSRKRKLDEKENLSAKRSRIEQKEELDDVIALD
T1 sequence (Q9UBE0 1-346 partner): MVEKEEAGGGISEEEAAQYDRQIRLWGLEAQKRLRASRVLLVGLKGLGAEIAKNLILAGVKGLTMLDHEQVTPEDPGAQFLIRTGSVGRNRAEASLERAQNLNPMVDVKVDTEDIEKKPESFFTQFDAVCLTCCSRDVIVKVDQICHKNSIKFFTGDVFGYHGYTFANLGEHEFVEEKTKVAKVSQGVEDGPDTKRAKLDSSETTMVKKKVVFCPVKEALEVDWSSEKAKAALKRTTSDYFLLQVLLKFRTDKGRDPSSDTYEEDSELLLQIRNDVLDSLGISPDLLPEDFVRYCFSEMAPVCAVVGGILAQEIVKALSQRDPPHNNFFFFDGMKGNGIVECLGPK
Assay: SAE HTRF Enzyme Assay
Assay type: biochemical
Conditions: for IC50: class symbols A-C; for Percent Inhibition / inhibition at 0.111 µM: compound concentration 0.111 μM; for Percent Inhibition: 0.111 µM; for inhibition at 0.111 µM: read-out: Percent Inhibition
Procedure, shortened: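 Sumoylation of Ubc9-GST by recombinant human SAE was followed by time-resolved FRET between Eu-cryptate anti-Flag and allophycocyanin anti-GST antibodies. The enzyme step used low ATP (0.5 μM) at pH 7.5 and ran 105 min at 24° C.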

Compound | IC50 [nM] | Percent Inhibition [%] | inhibition at 0.111 µM [%]
CC(c1ccc(Cl)o1)n1ccc(C(=O)c2cncnc2N[C@@H]2C[C@H](COS(N)(=O)=O)[C@@H](O)[C@@H]2F)c1 (single isomer, unassigned) [Compound I-364, [(1R,2R,3R,4R)-4-{[5-({1-[(1S)-1-(5-chloro-2-furyl)ethyl]-1H-pyrrol-3-yl}carbonyl)pyrimidin-4-yl]amino}-3-fluoro-2-hydroxycyclopentyl]methyl sulfamate or [(1R,2R,3R,4R)-4-{[5-({1-[(1R)-1-(5-chloro-2-furyl)ethyl]-1H-pyrrol-3-yl}carbonyl)pyrimidin-4-yl]amino}-3-fluoro-2-hydroxycyclopentyl]methyl sulfamate] | < 10 | 99 | 
NS(=O)(=O)OC[C@H]1C[C@@H](Nc2ncncc2C(=O)c2ccn(Cc3cc(Br)ccc3F)n2)C[C@@H]1O [Compound I-346, {(1R,2S,4R)-4-[(5-{[1-(5-bromo-2-fluorobenzyl)-1H-pyrazol-3-yl]carbonyl}pyrimidin-4-yl)amino]-2-hydroxycyclopentyl}methyl sulfamate] | < 10 |  | 100
CC(c1cccc(Br)c1)n1ccc(C(=O)c2cncnc2N[C@@H]2C[C@H](COS(N)(=O)=O)[C@@H](O)C2)n1 (single isomer, unassigned) [Compound I-315, [(1R,2S,4R)-4-{[5-({1-[(1S)-1-(3-bromophenyl)ethyl]-1H-pyrazol-3-yl}carbonyl)pyrimidin-4-yl]amino}-2-hydroxycyclopentyl]methyl sulfamate or [(1R,2S,4R)-4-{[5-({1-[(1R)-1-(3-bromophenyl)ethyl]-1H-pyrazol-3-yl}carbonyl)pyrimidin-4-yl]amino}-2-hydroxycyclopentyl]methyl sulfamate] | < 10 |  | 99
CC(c1ccccc1)n1ccc(C(=O)c2cncnc2N[C@@H]2C[C@H](COS(N)(=O)=O)[C@@H](O)[C@H]2O)n1 (single isomer, unassigned) [Compound I-351, {(1R,2R,3S,4R)-2,3-dihydroxy-4-[(5 -{[1-((1S)-1-phenylethyl)-1H-pyrazol-3-yl]carbonyl}pyrimidin-4-yl)amino]cyclopentyl}methyl sulfamate or {(1R,2R,3S,4R)-2,3-dihydroxy-4-[(5-{[1-((1R)-1-phenylethyl)-1H-pyrazol-3-yl]carbonyl}pyrimidin-4-yl)amino]cyclopentyl}methyl sulfamate] | < 10 |  | 97
CC(c1ccc(Cl)o1)n1ccc(C(=O)c2cncnc2N[C@@H]2C[C@H](COS(N)(=O)=O)[C@@H](O)[C@@H]2F)c1 (single isomer, unassigned) [Compound I-350, [(1R,2R,3R,4R)-4-{[5-({1-[(1S)-1-(5-chloro-2-furyl)ethyl]-1H-pyrrol-3-yl}carbonyl)pyrimidin-4-yl]amino}-3-fluoro-2-hydroxycyclopentyl]methyl sulfamate or [(1R,2R,3R,4R)-4-{[5-({1-[(1R)-1-(5-chloro-2-furyl)ethyl]-1H-pyrrol-3-yl}carbonyl)pyrimidin-4-yl]amino}-3-fluoro-2-hydroxycyclopentyl]methyl sulfamate] | < 10 |  | 96
NS(=O)(=O)OC[C@H]1C[C@@H](Nc2ncncc2C(=O)c2ccn(Cc3cccc(C(F)(F)F)c3)c2)C[C@@H]1O [Compound I-129, [(1R,2S,4R)-2-hydroxy-4-{[5-({1-[3-(trifluoromethyl)benzyl]-1H-pyrrol-3-yl}carbonyl)pyrimidin-4-yl]amino}cyclopentyl]methyl sulfamate] | < 10 |  | 99
NS(=O)(=O)OC[C@H]1C[C@@H](Nc2ncncc2C(=O)c2ccn(Cc3ccc(Cl)c(OC(F)(F)F)c3)n2)C[C@@H]1O [Compound I-152, [(1R,2S,4R)-4-{[5-({1-[4-Chloro-3-(trifluoromethoxy)benzyl]-1H-pyrazol-3-yl}carbonyl)pyrimidin-4-yl]amino}-2-hydroxycyclopentyl]methyl sulfamate] | < 10 |  | 94
COCCn1ccc(C(=O)c2cncnc2N[C@@H]2C[C@H](COS(N)(=O)=O)[C@@H](O)C2)n1 [Compound I-305, {(1R,2S,4R)-2-hydroxy-4-[(5-{[1-(2-methoxyethyl)-1H-pyrazol-3-yl]carbonyl}pyrimidin-4-yl)amino]cyclopentyl}methyl sulfamate] | 100 to 1000 |  | 32
NS(=O)(=O)OC[C@H]1C[C@@H](Nc2ncncc2C(=O)c2ccn(Cc3cn4ccccc4n3)n2)C[C@@H]1O [Compound I-214, {(1R,2S,4R)-2-hydroxy-4-[(5-{[1-(imidazo[1,2-a]pyridin-2-ylmethyl)-1H-pyrazol-3-yl]carbonyl}pyrimidin-4-yl)amino]cyclopentyl}methyl sulfamate] | < 10 |  | 98
NS(=O)(=O)OC[C@H]1C[C@@H](Nc2ncncc2C(=O)c2ccn(Cc3cc(C(F)(F)F)cc(C(F)(F)F)c3)c2)C[C@@H]1O [Compound I-168, [(1R,2S,4R)-4-{[5-({1-[3,5-Bis(trifluoromethyl)benzyl]-1H-pyrrol-3-yl}carbonyl)pyrimidin-4-yl]amino}-2-hydroxycyclopentyl]methylsulfamate] | < 10 |  | 94
NS(=O)(=O)OC[C@H]1C[C@@H](Nc2ncncc2C(=O)c2ccn(Cc3cc(F)c(F)cc3F)n2)C[C@@H]1O [Compound I-329, {(1R,2S,4R)-2-hydroxy-4-[(5-{[1-(2,4,5-trifluorobenzyl)-1H-pyrazol-3-yl]carbonyl}pyrimidin-4-yl)amino]cyclopentyl}methyl sulfamate] | < 10 |  | 93
CC#CCn1ccc(C(=O)c2cncnc2N[C@@H]2C[C@H](COS(N)(=O)=O)[C@@H](O)[C@@H]2F)c1 [Compound I-195, {(1R,2R,3R,4R)-4-[(5-{[1-(but-2-yn-1-yl)-1H-pyrrol-3-yl]carbonyl}pyrimidin-4-yl)amino]-3-fluoro-2-hydroxycyclopentyl}methyl sulfamate] | 10 to 100 |  | 90
Cn1cc(C#CCn2ccc(C(=O)c3cncnc3N[C@@H]3C[C@H](COS(N)(=O)=O)[C@@H](O)C3)n2)cn1 [Compound I-308, [(1R,2S,4R)-2-hydroxy-4-{[5-({1-[3-(1-methyl-1H-pyrazol-4-yl)prop-2-yn-1-yl]-1H-pyrazol-3-yl}carbonyl)pyrimidin-4-yl]amino}cyclopentyl]methyl sulfamate] | 100 to 1000 |  | 27
CC(c1cccc(Cl)c1)n1ccc(C(=O)c2cncnc2N[C@@H]2C[C@H](COS(N)(=O)=O)[C@@H](O)C2)n1 (single isomer, unassigned) [Compound I-360, [(1R,2S,4R)-4-{[5-({1-[(1S)-1-(3-chlorophenyl)ethyl]-1H-pyrazol-3-yl}carbonyl)pyrimidin-4-yl]amino}-2-hydroxycyclopentyl]methyl sulfamate or [(1R,2S,4R)-4-{[5-({1-[(1R)-1-(3-chlorophenyl)ethyl]-1H-pyrazol-3-yl}carbonyl)pyrimidin-4-yl]amino}-2-hydroxycyclopentyl]methyl sulfamate] | < 10 | 99 | 
Cc1cc(C(=O)c2cncnc2N[C@@H]2C[C@H](COS(N)(=O)=O)[C@@H](O)[C@@H]2F)nn1Cc1cccc(Br)c1 [Compound I-186, {(1R,2R,3R,4R)-4-[(5-{[1-(3-Bromobenzyl)-5-methyl-1H-pyrazol-3-yl]carbonyl}pyrimidin-4-yl)amino]-3-fluoro-2-hydroxycyclopentyl}methyl sulfamate] | < 10 |  | > 99
NS(=O)(=O)OC[C@H]1C[C@@H](Nc2ncncc2C(=O)c2ccn(Cc3ccccc3C(F)(F)F)n2)[C@H](O)[C@@H]1O [Compound I-182, [(1R,2R,3S,4R)-2,3-dihydroxy-4-{[5-({1-[2-(trifluoromethyl)benzy1]-1H-pyrazol-3-yl}carbonyl)pyrimidin-4-yl]amino}cyclopentyl]methyl sulfamate] | < 10 |  | 96
NS(=O)(=O)OC[C@H]1C[C@@H](Nc2ncncc2C(=O)c2ccn(CC3CCCCC3)n2)[C@H](O)[C@@H]1O [Compound I-82, {(1R,2R,3S,4R)-4-[(5-{[1-(cyclohexylmethyl)-1H-pyrazol-3-yl]carbonyl}pyrimidin-4-yl)amino]-2,3-dihydroxycyclopentyl}methyl sulfamate] | < 10 |  | 96
